Experimental data reported in patent publication US20240294522A1 (Lead Discovery Center GmbH, priority 2021, published 2024).

Experiments:
GRK5 = biological target: T1, GRK5 (Homo sapiens, UniProt P34947); experiment: Lance Kinase Activity Assay, GRK5; details: biochemical Lance kinase activity assay; class symbols A-F; read-out: GRK5 LANCE Assay (IC-50)
T1 construct: purchased Thermo Scientific
Outline: (§1)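 IC50s from sigmoidal dose-response over 0.0025-10 μM compound, with phosphorylated ULight substrate detected by Eu anti-phospho antibody FRET after EDTA quench.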

GRK2 = biological target: T2, GRK2 (Homo sapiens, UniProt P25098); experiment: Lance Kinase Activity Assay, GRK2; details: biochemical Lance kinase activity assay; class symbols A-F; read-out: GRK2 LANCE Assay (IC-50)
T2 construct: purchased Thermo Scientific
T2 sequence (P25098 1-689): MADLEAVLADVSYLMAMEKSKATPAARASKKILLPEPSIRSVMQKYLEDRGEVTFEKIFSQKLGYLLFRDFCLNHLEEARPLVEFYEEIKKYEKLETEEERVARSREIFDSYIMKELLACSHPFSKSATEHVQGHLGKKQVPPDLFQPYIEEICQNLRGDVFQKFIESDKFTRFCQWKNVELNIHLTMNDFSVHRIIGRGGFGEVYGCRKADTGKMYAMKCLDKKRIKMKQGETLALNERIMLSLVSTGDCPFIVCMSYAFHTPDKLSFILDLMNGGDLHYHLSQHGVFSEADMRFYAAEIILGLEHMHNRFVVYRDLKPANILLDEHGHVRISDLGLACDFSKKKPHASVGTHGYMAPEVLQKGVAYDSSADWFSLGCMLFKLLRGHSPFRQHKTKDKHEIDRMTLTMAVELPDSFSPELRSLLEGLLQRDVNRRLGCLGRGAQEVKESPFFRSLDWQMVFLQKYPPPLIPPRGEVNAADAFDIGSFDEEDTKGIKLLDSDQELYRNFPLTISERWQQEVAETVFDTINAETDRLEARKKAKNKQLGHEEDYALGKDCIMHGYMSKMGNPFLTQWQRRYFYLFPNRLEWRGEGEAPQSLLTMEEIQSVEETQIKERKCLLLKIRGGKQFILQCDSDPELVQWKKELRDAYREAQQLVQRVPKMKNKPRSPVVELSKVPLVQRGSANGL
Outline: as §1

T1 sequence (P34947 whole entry): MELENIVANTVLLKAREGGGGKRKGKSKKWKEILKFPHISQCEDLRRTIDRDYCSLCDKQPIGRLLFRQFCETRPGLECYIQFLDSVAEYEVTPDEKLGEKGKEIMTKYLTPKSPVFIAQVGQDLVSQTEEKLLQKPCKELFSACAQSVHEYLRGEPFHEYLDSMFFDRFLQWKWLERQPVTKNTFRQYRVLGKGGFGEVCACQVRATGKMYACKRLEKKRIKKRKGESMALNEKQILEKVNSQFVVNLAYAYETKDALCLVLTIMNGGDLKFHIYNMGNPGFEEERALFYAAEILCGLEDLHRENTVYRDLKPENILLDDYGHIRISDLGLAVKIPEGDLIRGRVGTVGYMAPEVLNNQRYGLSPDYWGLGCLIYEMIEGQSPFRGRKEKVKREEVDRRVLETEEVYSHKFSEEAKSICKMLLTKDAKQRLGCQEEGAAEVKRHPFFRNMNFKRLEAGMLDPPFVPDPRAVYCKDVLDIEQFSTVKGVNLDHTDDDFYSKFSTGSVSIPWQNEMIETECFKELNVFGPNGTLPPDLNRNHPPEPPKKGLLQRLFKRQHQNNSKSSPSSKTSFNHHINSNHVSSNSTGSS

Row | Compound | IC50 (GRK5) [nM] | IC50 (GRK2) [nM]
1 | COc1ccc([C@@H](C)NC(=O)/C(C#N)=C/c2c[nH]c3ncc(-c4ccccc4)cc23)cc1OC [Example 116] | 50 to 100 | > 10000
2 | COc1ccc([C@@H](C)NC(=O)/C(C#N)=C/c2c[nH]c3ncc(-c4cccc(CN5CCN(C)CC5)c4)cc23)cc1OC [Example 118, (R,E)-2-cyano-N-(1-(3,4-dimethoxyphenyl)ethyl)-3-(5-(3-((4-methylpiperazin-1-yl)methyl)phenyl)-1H-pyrrolo[2,3-b]pyridin-3-yl)acrylamide] | ≤ 50 | 1000 to 10000
3 | COc1ccc([C@@H](C)NC(=O)/C(C#N)=C/c2c[nH]c3ncc(-c4ccc(C(F)(F)F)cc4)cc23)cc1OC [Example 119] | 1000 to 10000 | > 10000
4 | COc1ccc([C@@H](C)NC(=O)/C(C#N)=C/c2c[nH]c3ncc(-c4cncnc4)cc23)cc1OC [Example 120, (R,E)-2-cyano-N-(1-(3,4-dimethoxyphenyl)ethyl)-3-(5-(pyrimidin-5-yl)-1H-pyrrolo[2,3-b]pyridin-3-yl)acrylamide] | 50 to 100 | 1000 to 10000
5 | CCN1CCN(S(=O)(=O)c2ccc(-c3cnc4[nH]cc(/C=C(\C#N)C(=O)N[C@H](C)c5ccc(OC)c(OC)c5)c4c3)cc2)CC1 [Example 121, (R,E)-2-cyano-N-(1-(3,4-dimethoxyphenyl)ethyl)-3-(5-(4-((4-ethylpiperazin-1-yl)sulfonyl)phenyl)-1H-pyrrolo[2,3-b]pyridin-3-yl)acrylamide] | 100 to 500 | > 10000
6 | COc1ccc([C@@H](C)NC(=O)/C(C#N)=C/c2c[nH]c3ncc(-c4cccc(N5CCN(C)CC5)c4)cc23)cc1OC [Example 122, (R,E)-2-cyano-N-(1-(3,4-dimethoxyphenyl)ethyl)-3-(5-(3-(4-methylpiperazin-1-yl)phenyl)-1H-pyrrolo[2,3-b]pyridin-3-yl)acrylamide] | ≤ 50 | > 10000
7 | COc1ccc([C@@H](C)NC(=O)/C(C#N)=C/c2c[nH]c3ncc(-c4ccc(F)cc4OC)cc23)cc1OC [Example 123] | 100 to 500 | > 10000
8 | COc1ccc([C@@H](C)NC(=O)/C(C#N)=C/c2c[nH]c3ncc(-c4ccccc4OC)cc23)cc1OC [Example 124] | 100 to 500 | > 10000
9 | COc1ccc([C@@H](C)NC(=O)/C(C#N)=C/c2c[nH]c3ncc(-c4cccc(S(C)(=O)=O)c4)cc23)cc1OC [Example 125] | ≤ 50 | > 10000
10 | COc1ccc([C@@H](C)NC(=O)/C(C#N)=C/c2c[nH]c3ncc(-c4ccc(C(N)=O)cc4)cc23)cc1OC [Example 126, (R,E)-4-(3-(2-cyano-3-((1-(3,4-dimethoxyphenyl)ethyl)amino)-3-oxoprop-1-en-1-yl)-1H-pyrrolo[2,3-b]pyridin-5-yl)benzamide] | 50 to 100 | > 10000
11 | COc1ccc([C@@H](C)NC(=O)/C(C#N)=C/c2c[nH]c3ncc(-c4cccc(C(=O)N5CCOCC5)c4)cc23)cc1OC [Example 127, (R,E)-2-cyano-N-(1-(3,4-dimethoxyphenyl)ethyl)-3-(5-(3-(morpholine-4-carbonyl)phenyl)-1H-pyrrolo[2,3-b]pyridin-3-yl)acrylamide] | ≤ 50 | > 10000
12 | COc1ccc([C@@H](C)NC(=O)/C(C#N)=C/c2c[nH]c3ncc(-c4cccc(N(C)C)c4)cc23)cc1OC [Example 128, (R,E)-2-cyano-N-(1-(3,4-dimethoxyphenyl)ethyl)-3-(5-(3-(dimethylamino)phenyl)-1H-pyrrolo[2,3-b]pyridin-3-yl)acrylamide] | 100 to 500 | > 10000
13 | COc1ccc([C@@H](C)NC(=O)/C(C#N)=C/c2c[nH]c3ncc(-c4ccccc4CN4CCCCC4)cc23)cc1OC [Example 129, (R,E)-2-cyano-N-(1-(3,4-dimethoxyphenyl)ethyl)-3-(5-(2-(piperidin-1-ylmethyl)phenyl)-1H-pyrrolo[2,3-b]pyridin-3-yl)acrylamide] | 1000 to 10000 | > 10000
14 | COc1ccc([C@@H](C)NC(=O)/C(C#N)=C/c2c[nH]c3ncc(-c4cccnc4)cc23)cc1OC [Example 130] | ≤ 50 | > 10000
15 | COc1ccc([C@@H](C)NC(=O)/C(C#N)=C/c2c[nH]c3ncc(-c4cc(F)cc(F)c4)cc23)cc1OC [Example 131] | 50 to 100 | 1000 to 10000
16 | COc1ccc([C@@H](C)NC(=O)/C(C#N)=C/c2c[nH]c3ncc(-c4ccc(C5CCN(C)CC5)cc4)cc23)cc1OC [Example 132, (R,E)-2-cyano-N-(1-(3,4-dimethoxyphenyl)ethyl)-3-(5-(4-(1-methylpiperidin-4-yl)phenyl)-1H-pyrrolo[2,3-b]pyridin-3-yl)acrylamide] | ≤ 50 | 500 to 1000
17 | COc1ccc([C@@H](C)NC(=O)/C(C#N)=C/c2c[nH]c3ncc(-c4cccc(OCCCN(C)C)c4)cc23)cc1OC [Example 133] | 1000 to 10000 | 1000 to 10000

Row | Compound | IC50 (GRK5) [nM] | IC50 (GRK2) [nM]
18 | COc1ccc([C@@H](C)NC(=O)/C(C#N)=C/c2c[nH]c3ncc(-c4ccc(CCN(C)C)cc4)cc23)cc1OC [Example 134] | ≤ 50 | 1000 to 10000
19 | COc1ccc([C@@H](C)NC(=O)/C(C#N)=C/c2c[nH]c3ncc(-c4ccccc4CN(C)C)cc23)cc1OC [Example 136] | 100 to 500 | > 10000
20 | COc1cccc(-c2cnc3[nH]cc(/C=C(\C#N)C(=O)N[C@H](C)c4ccc(OC)c(OC)c4)c3c2)c1 [Example 137, (R,E)-2-cyano-N-(1-(3,4-dimethoxyphenyl)ethyl)-3-(5-(3-methoxyphenyl)-1H-pyrrolo[2,3-b]pyridin-3-yl)acrylamide] | ≤ 50 | > 10000
21 | COc1ccc([C@@H](C)NC(=O)/C(C#N)=C/c2c[nH]c3ncc(-c4ccc(OCCCN(C)C)cc4)cc23)cc1OC [Example 138] | ≤ 50 | 500 to 1000
22 | COc1ccc([C@@H](C)NC(=O)/C(C#N)=C/c2c[nH]c3ncc(-c4ccc(C#N)cc4)cc23)cc1OC [Example 139] | 50 to 100 | > 10000
23 | COc1ccc([C@@H](C)NC(=O)/C(C#N)=C\c2c[nH]c3ncc(-c4ccc(C#N)cc4)cc23)cc1OC [Example 140, (R,Z)-2-cyano-3-(5-(4-cyanophenyl)-1H-pyrrolo[2,3-b]pyridin-3-yl)-N-(1-(3,4-dimethoxyphenyl)ethyl)acrylamide] | ≤ 50 | > 10000
24 | COc1ccc([C@@H](C)NC(=O)/C(C#N)=C/c2c[nH]c3ncc(-c4cccc(CN5CCN(C(C)=O)CC5)c4)cc23)cc1OC [Example 141, (R,E)-3-(5-(3-((4-acetylpiperazin-1-yl)methyl)phenyl)-1H-pyrrolo[2,3-b]pyridin-3-yl)-2-cyano-N-(1-(3,4-dimethoxyphenyl)ethyl)acrylamide] | ≤ 50 | 1000 to 10000
25 | COc1ccc([C@@H](C)NC(=O)/C(C#N)=C/c2c[nH]c3ncc(-c4ccc(NC(C)=O)cc4)cc23)cc1OC [Example 142] | ≤ 50 | 1000 to 10000
26 | COc1ccc([C@@H](C)NC(=O)/C(C#N)=C/c2c[nH]c3ncc(-c4ccncc4)cc23)cc1OC [Example 143] | ≤ 50 | 1000 to 10000
27 | COc1ccc([C@@H](C)NC(=O)/C(C#N)=C/c2c[nH]c3ncc(-c4ccc5ccccc5c4)cc23)cc1OC [Example 144] | 100 to 500 | > 10000
28 | COc1ccc(-c2cnc3[nH]cc(/C=C(\C#N)C(=O)N[C@H](C)c4ccc(OC)c(OC)c4)c3c2)cc1OC [Example 145] | ≤ 50 | > 10000
29 | COc1ccc(-c2cnc3[nH]cc(/C=C(/C#N)C(=O)N[C@H](C)c4ccc(OC)c(OC)c4)c3c2)cc1OC [Example 146] | 50 to 100 | > 10000
30 | COc1ccc([C@@H](C)NC(=O)/C(C#N)=C/c2c[nH]c3ncc(-c4ccc(N(C)C)nc4)cc23)cc1OC [Example 147, (R,E)-2-cyano-N-(1-(3,4-dimethoxyphenyl)ethyl)-3-(5-(6-(dimethylamino)pyridin-3-yl)-1H-pyrrolo[2,3-b]pyridin-3-yl)acrylamide] | ≤ 50 | 1000 to 10000
31 | COc1ccc([C@@H](C)NC(=O)/C(C#N)=C/c2c[nH]c3ncc(-c4cccc(CN(C)C)c4)cc23)cc1OC [Example 148] | ≤ 50 | 1000 to 10000
32 | COc1ccc([C@@H](C)NC(=O)/C(C#N)=C/c2c[nH]c3ncc(-c4cccc(S(=O)(=O)N(C)C)c4)cc23)cc1OC [Example 149] | ≤ 50 | 1000 to 10000
33 | COc1ccc([C@@H](C)NC(=O)/C(C#N)=C/c2c[nH]c3ncc(-c4cccc5cnn(C)c45)cc23)cc1OC [Example 150] | 500 to 1000 | > 10000
34 | COc1ccc([C@@H](C)NC(=O)/C(C#N)=C/c2c[nH]c3ncc(-c4cccc(NS(C)(=O)=O)c4)cc23)cc1OC [Example 151, (R,E)-2-cyano-N-(1-(3,4-dimethoxyphenyl)ethyl)-3-(5-(3-(methylsulfonamido)phenyl)-1H-pyrrolo[2,3-b]pyridin-3-yl)acrylamide] | ≤ 50 | > 10000
